Data as given in US8980254B2, “Formulation for oral administration of proteins” (Alvine Pharmaceuticals, Inc., priority 2008, dated 2015).
Entries after “also recorded” stand apart in the source; their conditions may differ.

Tests used:
Type in all cases: biochemical, barley
ALV001 [1] = molecular target: T1, ALV001 (Hordeum vulgare, UniProt P25250); assay: Stabilization of ALV001* in early postprandial gastric fluid by reducing agents; set-up: ALV001*(the active form of ALV001) is produced upon proteolytic cleavage of ALV001; made in house
Experimental: (§1) Frozen human postprandial gastric fluids were thawed and centrifuged at 21,000 g for 5 minutes to pellet insoluble material, and the supernatant was used for this example. Between 50 and 200 μl of gastric fluid were added to the wells of a 96-well plate and incubated at 37° C. When antioxidants were added, they were added at this step. […] At the specified sampling time, a 1.6 μl sample of gastric fluid was diluted in assay buffer to give a final volume of 280 μl, and the concentration was measured by a chromogenic activity assay using Z-Phe-Arg-p-nitroaniline (pNA) as the substrate. The method is based on the ability of pNA to absorb at 410 nm when released from the substrate. ALV001 is the proenzyme or zymogen for Endoprotease B (Isoform 2) that cleaves the C-terminal side of the arginine in the sequence Phe-Arg. Enzymatic cleavage and subsequent release of pNA may be monitored by the change in absorbance at 410 nm. To determine the reaction rate, the absorbance at 410 nm was measured every 10 seconds for 1 minute. The slope of the regression line divided by the enzyme concentration was the reported enzyme activity.
Target sequence in this assay (P25250 134-373): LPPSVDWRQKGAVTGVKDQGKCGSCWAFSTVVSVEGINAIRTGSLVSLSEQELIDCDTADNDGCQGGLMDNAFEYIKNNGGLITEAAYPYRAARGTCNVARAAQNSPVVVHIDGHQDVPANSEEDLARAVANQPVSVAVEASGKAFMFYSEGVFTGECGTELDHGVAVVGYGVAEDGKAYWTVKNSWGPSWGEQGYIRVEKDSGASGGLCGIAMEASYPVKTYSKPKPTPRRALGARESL

ALV001 [2] = molecular target: T1, ALV001; assay: Stabilization of ALV001 in ex vivo postprandial gastric fluid by added antioxidants/reducing/chelating agents (chromogenic activity); set-up: ALV001 is the proenzyme or zymogen for Endoprotease B (Isoform 2); made in house; conditions: for stability of ALV001 activity with agent added (FIG. 6): 15 minute postprandial gastric fluid, 37° C., 1.5-45 minutes; for stabilization (preservation of activity) of ALV001 in ex vivo gastric fluid: summary statement, concentration not given
Experimental: as §1
Target sequence in this assay (P25250 29-373 limits assumed): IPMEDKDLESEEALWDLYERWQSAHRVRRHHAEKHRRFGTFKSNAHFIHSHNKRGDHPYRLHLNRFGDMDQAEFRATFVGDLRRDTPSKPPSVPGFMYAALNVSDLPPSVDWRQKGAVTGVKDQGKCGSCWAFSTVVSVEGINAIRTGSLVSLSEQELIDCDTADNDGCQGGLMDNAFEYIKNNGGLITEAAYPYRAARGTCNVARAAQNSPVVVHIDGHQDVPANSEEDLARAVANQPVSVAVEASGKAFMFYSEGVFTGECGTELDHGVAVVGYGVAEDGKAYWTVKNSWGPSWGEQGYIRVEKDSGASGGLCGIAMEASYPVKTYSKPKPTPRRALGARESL
A control without MTG was also included.
Shown in FIG. 6, selected reducing agents were added at 5 mM to ex vivo postprandial gastric fluid that was obtained from a healthy volunteer 15 minutes after eating and was incubated at 37° C. The proenzyme ALV001 was added to the gastric fluid. Acetate buffer at pH 4.5 was used as a control, because ALV001 is fully activated under these conditions. Samples were taken to determine ALV001 activity after 1.5, 5, 10, 20, […].
Samples were taken at 1.5, 5, 10, 20, and 40 minutes.

ALV001 [3] = molecular target: T1, ALV001; assay: ALV001 activity under simulated postprandial gastric conditions with cysteine; set-up: ALV001 is the proenzyme or zymogen for Endoprotease B (Isoform 2); made in house; conditions: gluten-free meal chewed and spit into resting gastric fluid, ALV003 and varying levels of cysteine, simulated gastric acid secretion
Experimental: A gluten-free meal was chewed and spit into resting gastric fluid. ALV003 and varying levels of cysteine were added at time 0 and the stability of ALV001 activity was tested by monitoring chromogenic enzyme activity over time. Gastric acid secretion was simulated throughout the experiment.
A gluten-free meal was chewed and spit into resting gastric fluid. ALV003 and varying levels of cysteine were added at time 0, and the stability of ALV001 activity was measured by monitoring chromogenic enzyme activity over time. Gastric acid secretion was simulated throughout the experiment.
Target sequence in this assay (P25250 29-373 limits assumed): as above

ALV001 [4] = molecular target: T1, ALV001; assay: Restoration of ALV001 activity by agents added after 15 minutes incubation in postprandial gastric fluid; set-up: ALV001 is the proenzyme or zymogen for Endoprotease B (Isoform 2); made in house; conditions: agent at 5 mM added after 15 minutes at 37° C. in postprandial gastric fluid; 1.5-40 minutes after addition
Experimental: ALV001 was added to postprandial gastric fluid and incubated for 15 minutes at 37° C. Reducing agents were added at 5 mM to the gastric fluid and then samples were taken to examine ALV001 activity at 1.5, 5, 10, 20, and 40 minutes after the addition of the reducing agents.
Target sequence in this assay (P25250 29-373 limits assumed): as above

ALV001 [5] = molecular target: T1, ALV001; assay: Stabilization of ALV001 in ex vivo postprandial gastric fluid by added antioxidants/reducing/chelating agents (chromogenic activity); set-up: ALV001 is the proenzyme or zymogen for Endoprotease B (Isoform 2); made in house; conditions: for stabilization of ALV001 (FIG. 11): ALV001 at 0.12 mg/ml, 1.5-40 minutes; for stability of ALV001 in postprandial gastric fluid (FIG. 7): agent at 0.5 mM
Target sequence in this assay (P25250 29-373 limits assumed): as above

ALV001 [6] = molecular target: T1, ALV001; assay: ALV001 activity reconstituted in orange juice with or without sodium metabisulfite; set-up: ALV001 is the proenzyme or zymogen for Endoprotease B (Isoform 2); made in house; conditions: 3 mg/ml ALV001 in orange juice, 840 μM sodium metabisulfite
Experimental: 3 mg/ml ALV001 was reconstituted in orange juice with or without 840 μM sodium metabisulfite. Chromogenic enzyme activity was measured at the indicated timepoints to determine the relative amount of functional enzyme.
3 mg/ml ALV001 was reconstituted in orange juice with or without 840 μM sodium metabisulfite. Chromogenic enzyme activity was measured as described above, at the indicated timepoints, to determine the relative amount of functional enzyme, as shown in FIG. 13.
Target sequence in this assay (P25250 29-373 limits assumed): as above

ALV001 [7] = molecular target: T1, ALV001; assay: Reversal of loss of enzyme activity: ALV003 pre-incubated in 15 minute postprandial gastric fluid, then MTG added; set-up: ALV001*(the active form of ALV001) is produced upon proteolytic cleavage of ALV001; made in house; conditions: 50 mM MTG, approximately 20 minutes after addition to pre-incubated ALV003 in 15 minute postprandial gastric fluid
Target sequence in this assay (P25250 134-373): as the sequence (P25250 134-373) above

Row | Compound | stabilization of ALV001* in early postprandial gastric fluid (ALV001 [1]) | stability of ALV001 activity with agent added (FIG. 6) (ALV001 [2]; agent at 5 mM) | stabilization (preservation of activity) of ALV001 in ex vivo gastric fluid (ALV001 [2]) | further results
1 | OCCS [2-mercaptoethanol] | demonstrated to stabilize ALV001* | – | – | –
2 | N[C@@H](CS)C(=O)O [L-cysteine] | demonstrated to stabilize ALV001* | Substantial improvements in stability | – | stability of ALV001 activity under simulated postprandial gastric conditions (FIG. 14) (ALV001 [3]): stabilizes ALV001 activity
3 | O=C1O[C@H]([C@@H](O)CO)C(O)=C1O [ascorbic acid] | did not stabilize the enzyme | rapidly inactivated | did not stabilize | –
4 | O=S([O-])[O-].[Na+].[Na+] [sodium sulfite] | demonstrated to stabilize ALV001* | most effective stabilization | particularly effective in stabilizing ALV001 | restoration of ALV001 enzyme activity (ALV001 [4]): partially restored the enzyme activity; concentration down to which the stabilizing effect persists (ALV001 [5]; postprandial gastric fluid (FIG. 8)): 0.05 mM; stabilization of ALV001 (FIG. 8) (ALV001 [5]; sodium sulfite time course, postprandial gastric fluid): particularly effective
5 | O[C@H](CS)[C@H](O)CS (racemic) [dithiothreitol] | demonstrated to stabilize ALV001* | – | – | –
6 | O=C(O)CCCC[C@@H]1CCSS1 (racemic) [lipoic acid] | demonstrated to stabilize ALV001* | – | – | stability of ALV001 in postprandial gastric fluid (FIG. 7) (ALV001 [2]; agent at 5 mM): demonstrated to improve the stability of ALV001
7 | Cl.O=C(O)CCP(CCC(=O)O)CCC(=O)O [TCEP, tris(2-Carboxyethyl)phosphine hydrochloride] | demonstrated to stabilize ALV001* | – | – | –
8 | O=S([O-])([O-])=S.[Na+].[Na+] [sodium thiosulfate] | demonstrated to stabilize ALV001* | – | – | stability of ALV001 in postprandial gastric fluid (FIG. 7) (ALV001 [5]): demonstrated to improve the stability of ALV001
9 | OCC(O)CS (centres unmarked) [MTG, monothioglycerol] | – | – | – | loss of enzymatic activity of ALV001 (FIG. 4) (ALV001 [5]; 50 mM MTG, 15 minute postprandial gastric fluid): no loss; rate of loss of enzymatic activity of ALV001 (FIG. 4) (ALV001 [5]; MTG 0.01 to 50 mM, 15 minute postprandial gastric fluid): decreased with increasing MTG concentrations; restoration of enzymatic activity of ALV001* (FIG. 5) (ALV001 [7]): nearly full enzymatic activity was restored

Now from value to compound, other results behind:

Row | stabilization of ALV001* in early postprandial gastric fluid (ALV001 [1]) | Compound | stability of ALV001 activity with agent added (FIG. 6) (ALV001 [2]; agent at 5 mM) | stabilization (preservation of activity) of ALV001 in ex vivo gastric fluid (ALV001 [2]) | further results
10 | demonstrated to stabilize ALV001* | N[C@@H](CCS)C(=O)O [homocysteine] | – | – | –
11 | demonstrated to stabilize ALV001* | O=S([O-])S(=O)(=O)[O-].[Na+].[Na+] [sodium metabisulfite] | – | particularly effective in stabilizing ALV001 | stability of ALV001 activity in orange juice (FIG. 13) (ALV001 [6]): stabilizes ALV001 activity; also recorded: increased stability; stabilization of ALV001 (FIG. 11) (ALV001 [5]; agent at 25 μM, postprandial gastric fluid): considerable stabilization; stability of ALV001 (ALV001 [5]; agent at 50 μM): improved stability of ALV001; stabilization of ALV001 (FIG. 11) (ALV001 [5]; agent at 50 μM, postprandial gastric fluid): best stabilization; stability of ALV001 in postprandial gastric fluid (FIG. 7) (ALV001 [5]): demonstrated to improve the stability of ALV001
12 | demonstrated to stabilize ALV001* | CC(=O)N[C@@H](CS)C(=O)O [N-acetylcysteine] | Substantial improvements in stability | – | restoration of ALV001 enzyme activity (ALV001 [4]): partially restored the enzyme activity
13 | did not stabilize the enzyme | CSCC[C@H](N)C(=O)O [L-methionine] | – | did not stabilize | –
